Results on three compounds are retold here after article PMC3070799 (Neuropharmacology, 2011).

In one assay the target is T1, human 5-HT3AB receptors (Homo sapiens, UniProt O95264+P46098).
T1 construct: expressed in transfected cells; host or cells: Xenopus laevis oocytes (cRNA from pGEMHE)
T1 sequence (P46098 24-478): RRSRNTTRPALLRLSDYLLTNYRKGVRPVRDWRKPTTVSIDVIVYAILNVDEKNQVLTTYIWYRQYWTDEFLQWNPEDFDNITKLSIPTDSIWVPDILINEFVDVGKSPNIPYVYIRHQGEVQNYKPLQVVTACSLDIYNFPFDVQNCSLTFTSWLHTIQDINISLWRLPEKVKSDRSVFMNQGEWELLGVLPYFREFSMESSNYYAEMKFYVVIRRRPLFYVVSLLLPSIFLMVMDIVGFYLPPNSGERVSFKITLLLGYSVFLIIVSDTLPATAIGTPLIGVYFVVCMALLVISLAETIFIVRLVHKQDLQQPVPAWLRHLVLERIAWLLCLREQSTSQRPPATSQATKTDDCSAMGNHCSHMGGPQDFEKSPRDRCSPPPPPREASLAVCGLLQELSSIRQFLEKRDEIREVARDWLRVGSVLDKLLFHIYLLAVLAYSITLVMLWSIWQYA
T1 sequence (O95264 22-441): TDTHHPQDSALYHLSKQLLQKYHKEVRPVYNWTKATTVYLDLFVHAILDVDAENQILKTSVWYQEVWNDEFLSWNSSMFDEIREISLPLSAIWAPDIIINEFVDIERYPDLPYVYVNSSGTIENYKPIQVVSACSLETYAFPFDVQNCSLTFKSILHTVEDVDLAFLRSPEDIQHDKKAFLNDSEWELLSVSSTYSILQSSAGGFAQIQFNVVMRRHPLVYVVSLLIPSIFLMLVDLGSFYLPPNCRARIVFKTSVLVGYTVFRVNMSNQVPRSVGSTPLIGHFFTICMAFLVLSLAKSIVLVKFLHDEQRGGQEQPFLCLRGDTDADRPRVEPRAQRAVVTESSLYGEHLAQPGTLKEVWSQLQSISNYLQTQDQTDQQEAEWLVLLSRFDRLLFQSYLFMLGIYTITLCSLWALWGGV
In words: Two-electrode voltage clamp of 5-HT-induced currents in Xenopus oocytes. The format is cell-based. As to conditions: for IC50 at heteromers (5-HT3AB) relative to 5-HT3A: 5-HT3AB versus 5-HT3A; for IC50: oocytes; for Hill slope: concentration-inhibition curve, 28 μM 5-HT. The procedure:
Stage V and VI oocytes were injected with 50 nl of ∼300 ng μl^−1 cRNA, and currents were recorded 1–4 days post-injection. A ratio of 1:3 (A:B) was used for the expression of heteromeric 5-HT3 receptors.
Xenopus laevis oocyte positive females were purchased from NASCO (Fort Atkinson, Wisconsin, USA) and maintained according to standard methods.
Currents were filtered at a frequency of 1 kHz. Micro-electrodes were fabricated from borosilicate glass (GC120TF-10, Harvard Apparatus, Edenbridge, Kent, UK) using a two stage horizontal pull (P-87, Sutter Instrument Company, California, USA) and filled with 3 M KCl. […] Oocytes were perfused with saline at a rate of 15 ml min^−1. Drug application was via a simple gravity fed system calibrated to run at the same rate. Extracellular saline contained (mM), 96 NaCl, 2 KCl, 1 MgCl2 and 5 mM HEPES; adjusted to pH 7.4 with NaOH.
Analysis and curve fitting was performed using Prism V3.02 (GraphPad Software, San Diego, California, USA, www.graphpad.com). Concentration-response data for each oocyte was normalised to the maximum current for that oocyte. For inhibition curves, antagonists were routinely co-applied in the presence of agonist. For PXN, oocytes were also pre-treated with the compound for 20 s. A 2 min wash was used between drug applications. The mean and S.E.M. for a series of oocytes was plotted against agonist or antagonist concentration and iteratively fitted (GraphPad Prism v3.02) to the following Hill equation:(1) IA=Imin+Imax−Imin/1+10^nH(logA50−logA) where A is the concentration of ligand present; IA is the current in the presence of ligand concentration A; Imin is the current when A = 0; Imax is the current when A = ∞ , A50 is the concentration of A which evokes a current equal to (Imax + Imin)/2; and nH is the Hill coefficient. Results are presented as mean ± S.E.M.. Statistical analysis was performed using ANOVA in conjunction with a Dunnett’s post-hoc test.

The next assay deals with glycine α1β receptors. Set-up: method as in Yang et al., 2007. The note with it: ref Yang et al., 2007; cited from earlier work.
The target in another assay is glycine α1 receptors. Set-up: method as in Yang et al., 2007. The note with it: ref Yang et al., 2007; cited from earlier work.
The next assay deals with glycine α2 receptors. Set-up: method as in earlier work. As to conditions: more potent than PTN; ref Chen et al., 2006; Curtis and Johnston, 1974; Yang et al., 2007; cited from earlier work.
The test system of the next assay is GABAA receptor. Set-up: method as in earlier work. The note with it: more potent than PTN; ref Chen et al., 2006; Curtis and Johnston, 1974; Yang et al., 2007; cited from earlier work.
The mark [1] stands for this setting: IC50, inhibition of 5-HT EC50 response (28 μM 5-HT).
[2] abbreviates: pIC50, inhibition of 5-HT EC50 response (28 μM 5-HT).

`CC(C)(C)[C@]1(O)CC2OC(=O)CC23C(=O)OC2OC(=O)[C@H](O)C231` (some centres unmarked) [BB, bilobalide]: at human 5-HT3AB receptors, the “IC50 at heteromers (5-HT3AB) relative to 5-HT3A” value is listed as about 6 fold and the Hill slope is on record as 0.75 ± 0.13. The IC50 against human 5-HT3AB receptors (setting [1]) came to 3200 µM. Further, the IC50 against human 5-HT3AB receptors (setting [2]) was 3160 µM.

`C=C(C)[C@@H]1[C@H]2OC(=O)[C@@H]1[C@]1(O)C[C@H]3O[C@]34C(=O)O[C@H]2[C@]14C` [PXN, picrotoxinin]: the IC50 was about 30 µM at glycine α1β receptors, 62 µM against human 5-HT3AB receptors (setting [1]), 63.1 µM on human 5-HT3AB receptors (setting [2]) and about 5 µM on glycine α1 receptors. For the same compound, at human 5-HT3AB receptors, the “IC50 at heteromers (5-HT3AB) relative to 5-HT3A” value is about 6 fold. The compound further registered a Hill slope at human 5-HT3AB receptors of 0.68 ± 0.10. The “potency relative to PTN” value in the assay on glycine α2 receptors is about 30 fold; with GABAA receptor, about 50 fold.

As to ginkgolide B [GB], on human 5-HT3AB receptors, the “IC50 at heteromers (5-HT3AB) relative to 5-HT3A” value is on record as about 6 fold and the Hill slope amounted to 0.52 ± 0.14.

In general, Hill slope refers to the slope factor of the fitted curve.
